Results taken from US20260041683A1, “Compounds with Anti-Acinetobacter Baumannii Activity” (University of Kentucky Research Foundation, priority 2022, published 2026).
Values after ≈ are worked out from the molar mass of the structure shown.

Tests used:
Test in all cases: MIC determination
Format in all cases: cell-based
[1] = test system: Ab strain #293 (CDC and FDA AR Bank); details: Acinetobacter baumannii; Ab AR Bank #293
Method: (§1) All bacterial strains listed above were stored at −80° C. All strains were streaked on Mueller-Hinton (MH) plates and allowed to grow at 37° C. overnight. Enough colonies were scraped from the plate and suspended in MH broth with vortexing to reach an attenuance at 600 nm (OD600) of ˜0.5. The resulting culture was diluted 1:1000 and added to the prepared serially doubly diluted compound solutions in 96-well plates. For M. smegmatis, a 1:100 dilution of the bacteria was done in MH. All MIC values were determined using 96-well plates with low evaporation seals at least in duplicate. For each row, one well was reserved for sterile control (which consisted of 200 μL of MH medium) and another well was reserved for growth control (which consisted of 100 μL of MH medium seeded with 100 μL of bacterial culture).
(§2) Then all 46 compounds were tested against a broad panel of all 41 Ab strains from the CDC and FDA Antibiotic Resistance (AR) Isolate Bank (Table 2; data shown for 2 representative compounds), which were all highly multidrug-resistant strains, including those resistant to colistin. […] The activity of the monohydrazides was not dependent on the extent (number of resistance mutations) or severity (antibiotic MIC) of resistance. All conclusions made from Table 1 remained valid for all compounds against these 41 additional Ab strains. […] This mechanism of action will be elucidated in the proposed studies.

[2] = test system: Ab strain #304 (CDC and FDA AR Bank); details: Acinetobacter baumannii; Ab AR Bank #304
Method: as §1, §2

[3] = test system: Ab strain #303 (CDC and FDA AR Bank); details: Acinetobacter baumannii; Ab AR Bank #303
Method: as §1, §2

[4] = test system: Ab strain #300 (CDC and FDA AR Bank); details: Acinetobacter baumannii; Ab AR Bank #300
Method: as §1, §2

[5] = test system: Ab strain #310 (CDC and FDA AR Bank); details: Acinetobacter baumannii; Ab AR Bank #310
Method: as §1, §2

[6] = test system: Ab strain #311 (CDC and FDA AR Bank); details: Acinetobacter baumannii; Ab AR Bank #311
Method: as §1, §2

[7] = test system: Ab strain #302 (CDC and FDA AR Bank); details: Acinetobacter baumannii; Ab AR Bank #302
Method: as §1, §2

[8] = test system: Ab strain #285 (CDC and FDA AR Bank); details: Acinetobacter baumannii; Ab AR Bank #285
Method: as §1, §2

[9] = test system: Ab strain #280 (CDC and FDA AR Bank); details: Acinetobacter baumannii; Ab AR Bank #280
Method: as §1, §2

[10] = test system: Ab strain #308 (CDC and FDA AR Bank); details: Acinetobacter baumannii; Ab AR Bank #308
Method: as §1, §2

[11] = test system: Ab strain #297 (CDC and FDA AR Bank); details: Acinetobacter baumannii; Ab AR Bank #297
Method: as §1, §2

[12] = test system: Ab strain #274 (CDC and FDA AR Bank); details: Acinetobacter baumannii; Ab AR Bank #274
Method: as §1, §2

[13] = test system: Ab strain #275 (CDC and FDA AR Bank); details: Acinetobacter baumannii; Ab AR Bank #275
Method: as §1, §2

[14] = test system: Ab strain #291 (CDC and FDA AR Bank); details: Acinetobacter baumannii; Ab AR Bank #291
Method: as §1, §2

[15] = test system: Ab strain #277 (CDC and FDA AR Bank); details: Acinetobacter baumannii; Ab AR Bank #277
Method: as §1, §2

[16] = test system: Ab strain #292 (CDC and FDA AR Bank); details: Acinetobacter baumannii; Ab AR Bank #292
Method: as §1, §2

[17] = test system: Ab strain #288 (CDC and FDA AR Bank); details: Acinetobacter baumannii; Ab AR Bank #288
Method: as §1, §2

[18] = test system: Ab strain #283 (CDC and FDA AR Bank); details: Acinetobacter baumannii; Ab AR Bank #283
Method: as §1, §2

[19] = test system: Ab strain #286 (CDC and FDA AR Bank); details: Acinetobacter baumannii; Ab AR Bank #286
Method: as §1, §2

[20] = test system: Ab strain #282 (CDC and FDA AR Bank); details: Acinetobacter baumannii; Ab AR Bank #282
Method: as §1, §2

[21] = test system: Ab strain #306 (CDC and FDA AR Bank); details: Acinetobacter baumannii; Ab AR Bank #306
Method: as §1, §2

[22] = test system: Ab strain #296 (CDC and FDA AR Bank); details: Acinetobacter baumannii; Ab AR Bank #296
Method: as §1, §2

[23] = test system: Ab strain #289 (CDC and FDA AR Bank); details: Acinetobacter baumannii; Ab AR Bank #289
Method: as §1, §2

[24] = test system: Ab strain #276 (CDC and FDA AR Bank); details: Acinetobacter baumannii; Ab AR Bank #276
Method: as §1, §2

[25] = test system: Ab strain #307 (CDC and FDA AR Bank); details: Acinetobacter baumannii; Ab AR Bank #307
Method: as §1, §2

[26] = test system: Ab strain #312 (CDC and FDA AR Bank); details: Acinetobacter baumannii; Ab AR Bank #312
Method: as §1, §2

[27] = test system: Ab strain #279 (CDC and FDA AR Bank); details: Acinetobacter baumannii; Ab AR Bank #279
Method: as §1, §2

Structure (SMILES)	MIC [1] [µg/mL]	MIC [2] [µg/mL]	MIC [3] [µg/mL]	MIC [4] [µg/mL]	MIC [5] [µg/mL]	MIC [6] [µg/mL]	MIC [7] [µg/mL]	MIC [8] [µg/mL]	MIC [9] [µg/mL]	MIC [10] [µg/mL]	MIC [11] [µg/mL]	MIC [12] [µg/mL]	MIC [13] [µg/mL]	MIC [14] [µg/mL]	MIC [15] [µg/mL]	MIC [16] [µg/mL]	MIC [17] [µg/mL]	MIC [18] [µg/mL]	MIC [19] [µg/mL]	MIC [20] [µg/mL]	further results
O=C(NNc1cccc(F)c1)c1cnccn1 [Compound 9a]	0.25 (≈ 1.08 µM)	≤ 0.13	0.25 (≈ 1.08 µM)	0.25 (≈ 1.08 µM)	0.5 (≈ 2.15 µM)	0.5 (≈ 2.15 µM)	0.25 (≈ 1.08 µM)	0.5 (≈ 2.15 µM)	1 (≈ 4.31 µM)	0.25 (≈ 1.08 µM)	0.5 (≈ 2.15 µM)	1 (≈ 4.31 µM)	0.5 (≈ 2.15 µM)	0.25 (≈ 1.08 µM)	1 (≈ 4.31 µM)	0.25 (≈ 1.08 µM)	1 (≈ 4.31 µM)	0.25 (≈ 1.08 µM)	1 (≈ 4.31 µM)	1 (≈ 4.31 µM)	MIC [21]: 0.5 µg/mL (≈ 2.15 µM); MIC [22]: ≤ 0.13 µg/mL; MIC [23]: 0.5 µg/mL (≈ 2.15 µM); MIC [24]: 0.5 µg/mL (≈ 2.15 µM); MIC [25]: 0.5 µg/mL (≈ 2.15 µM); MIC [26]: 0.5 µg/mL (≈ 2.15 µM); MIC [27]: 1 µg/mL (≈ 4.31 µM)
O=C(NNc1ccc(Cl)cc1)c1ccc(F)cn1 [Compound 3e]	0.13 (≈ 0.489 µM)	0.5 (≈ 1.88 µM)	0.13 (≈ 0.489 µM)	0.25 (≈ 0.941 µM)	0.25 (≈ 0.941 µM)	0.5 (≈ 1.88 µM)	0.13 (≈ 0.489 µM)	0.13 (≈ 0.489 µM)	0.5 (≈ 1.88 µM)	0.13 (≈ 0.489 µM)	0.25 (≈ 0.941 µM)	0.5 (≈ 1.88 µM)	0.25 (≈ 0.941 µM)	0.06 (≈ 0.226 µM)	0.06 (≈ 0.226 µM)	0.25 (≈ 0.941 µM)	0.25 (≈ 0.941 µM)	0.5 (≈ 1.88 µM)	0.06 (≈ 0.226 µM)	0.25 (≈ 0.941 µM)	MIC [21]: 0.13 µg/mL (≈ 0.489 µM); MIC [22]: 0.06 µg/mL (≈ 0.226 µM); MIC [23]: 0.25 µg/mL (≈ 0.941 µM); MIC [24]: 0.03 µg/mL (≈ 0.113 µM); MIC [25]: 0.5 µg/mL (≈ 1.88 µM); MIC [26]: 0.5 µg/mL (≈ 1.88 µM); MIC [27]: 0.25 µg/mL (≈ 0.941 µM)
